Values joined by “and” are separate entries in the source; they are usually repeats but may differ in a detail not shown here. Equal entries are not always repeated.
Assays:
[1] = molecular target: T1, 30S IC (30S-bound IF2, Bpy-tRNAi) (Escherichia coli, UniProt P0A705); experiment: 30S IC formation measured by MST at increasing concentrations of IF2 with guanosine nucleotides; assay type: binding; settings: Fig 2A
T1 construct: 6xHis (N); made in house
In short: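 Binding of fluorescent Bpy-tRNAi to E. coli 30S subunits monitored by microscale thermophoresis over increasing IF2 with each guanosine nucleotide; nucleotide titrations used IF2 fixed at 1 μM. Dissociation constants from quadratic fits of Ff/Fi; triplicate measurements.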

IF2-bound 30S IC = molecular target: T2, IF2-bound 30S IC (Escherichia coli, UniProt P0A705); experiment: 30S IC formation by MST, guanosine nucleotide titration; assay type: binding; settings: for MST Average / MST Replicates (a.u.): Fig 2B (GDP/ppGpp series);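 for MST Average: lower thermophoresis signal means Bpy-tRNAi dissociation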;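 for MST Replicates (a.u.): lower thermophoresis signal means Bpy-tRNAi dissociation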
T2 construct: 6xHis (N); made in house
In short: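 Binding of fluorescently labelled initiator tRNA (Bpy-tRNAi) to E. coli 30S subunits followed by microscale thermophoresis, titrating guanosine nucleotides at constant 1 μM IF2. Dissociation constants from quadratic nonlinear fits of Ff/Fi versus ligand concentration; three measurements, mean ± SD.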

70S IC = molecular target: T3, 70S IC (Escherichia coli, UniProt P0A705); experiment: 70S IC formation by Bpy-tRNAi accommodation, stopped-flow; assay type: biochemical; parameters: K1, best-fit value: unit not given here; settings: for A0, best-fit value / A1, best-fit value / K1, best-fit value / k2, best-fit value: fit Y=A0+A1*exp(-K1*x)+k2*x; for kfast (s-1) Avg: fluorescence
T3 construct: 6xHis (N); made in house
In short: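 Stopped-flow at 25 °C: 0.2 μM 30S ICs mixed with 0.6 μM 50S subunits; pre-IC formation followed by 90° light scattering (excitation 430 nm), accommodation by Bpy-tRNAi fluorescence (excitation 470 nm, 495-nm longpass). Averaged traces fitted by single or double exponentials to give kapp.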

T3 sequence (P0A705 whole entry, looked up): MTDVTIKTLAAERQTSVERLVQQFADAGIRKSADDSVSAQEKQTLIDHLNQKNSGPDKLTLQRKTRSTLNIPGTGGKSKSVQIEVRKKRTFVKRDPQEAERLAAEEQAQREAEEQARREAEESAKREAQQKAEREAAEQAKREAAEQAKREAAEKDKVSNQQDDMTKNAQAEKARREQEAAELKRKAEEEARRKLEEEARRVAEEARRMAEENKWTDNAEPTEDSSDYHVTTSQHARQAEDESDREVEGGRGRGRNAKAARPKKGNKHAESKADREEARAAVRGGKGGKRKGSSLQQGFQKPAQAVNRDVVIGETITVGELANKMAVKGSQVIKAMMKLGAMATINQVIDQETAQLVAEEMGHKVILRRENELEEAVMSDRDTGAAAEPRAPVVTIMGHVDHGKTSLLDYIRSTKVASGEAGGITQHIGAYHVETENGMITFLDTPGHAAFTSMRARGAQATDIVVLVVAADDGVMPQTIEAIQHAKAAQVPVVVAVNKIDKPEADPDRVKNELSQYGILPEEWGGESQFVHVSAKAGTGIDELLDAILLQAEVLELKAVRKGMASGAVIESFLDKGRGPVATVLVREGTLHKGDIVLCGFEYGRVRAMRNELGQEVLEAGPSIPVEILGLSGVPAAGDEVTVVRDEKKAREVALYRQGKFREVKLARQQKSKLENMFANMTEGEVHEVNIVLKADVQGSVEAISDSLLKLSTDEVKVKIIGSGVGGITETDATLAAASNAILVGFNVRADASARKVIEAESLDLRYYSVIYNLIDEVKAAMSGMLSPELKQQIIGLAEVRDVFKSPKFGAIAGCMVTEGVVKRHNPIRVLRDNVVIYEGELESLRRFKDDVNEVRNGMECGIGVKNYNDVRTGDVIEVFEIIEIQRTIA
T2 sequence (P0A705 whole entry, looked up): as above
T1 sequence (P0A705 whole entry, looked up): as above

## Nc1nc2c(ncn2[C@@H]2O[C@H](COP(=O)(O)OP(=O)(O)O)[C@@H](OP(=O)(O)OP(=O)(O)O)[C@H]2O)c(=O)[nH]1 [ppGpp]
[1]; IF2 0.16 µM, in the presence of the nucleotide
  MST Replicates (a.u.): 941.10 a.u. and 944.88 a.u. and 948.29 a.u.
[1]; IF2 0.31 µM
  MST Average: 944.83 a.u.
  MST Replicates (a.u.): 937.79 a.u. and 942.65 a.u. and 947.01 a.u.
[1]; IF2 0.63 µM
  MST Average: 941.79 a.u.
  MST Replicates (a.u.): 935.48 a.u. and 940.20 a.u. and 943.38 a.u.
[1]; IF2 1.25 µM
  MST Average: 942.39 a.u.
  MST Replicates (a.u.): 936.09 a.u. and 941.10 a.u. and 943.68 a.u.
[1]; IF2 2.50 µM
  MST Average: 949.26 a.u.
  MST Replicates (a.u.): 943.13 a.u. and 948.21 a.u. and 950.30 a.u.
[1]; IF2 5.00 µM
  MST Average: 968.50 a.u.
  MST Replicates (a.u.): 965.17 a.u. and 967.18 a.u. and 969.82 a.u.
IF2-bound 30S IC; nucleotide 0.13 µM
  MST Average: 936.81 a.u.
IF2-bound 30S IC; nucleotide 0.13 µM, constant IF2 (1 μM)
  MST Replicates (a.u.): 935.73 a.u. and 937.32 a.u. and 936.20 a.u. and 937.97 a.u.
IF2-bound 30S IC; nucleotide 0.25 µM
  MST Average: 935.17 a.u.
  MST Replicates (a.u.): 933.09 a.u. and 935.35 a.u. and 935.04 a.u. and 937.21 a.u.
IF2-bound 30S IC; nucleotide 0.50 µM
  MST Average: 935.42 a.u.
  MST Replicates (a.u.): 934.19 a.u. and 935.54 a.u. and 934.92 a.u. and 937.01 a.u.
IF2-bound 30S IC; nucleotide 1.00 µM
  MST Average: 934.04 a.u.
  MST Replicates (a.u.): 932.40 a.u. and 934.21 a.u. and 934.12 a.u. and 935.41 a.u.
IF2-bound 30S IC; nucleotide 2.00 µM
  MST Average: 933.55 a.u.
  MST Replicates (a.u.): 931.48 a.u. and 933.31 a.u. and 934.38 a.u. and 935.04 a.u.
IF2-bound 30S IC; nucleotide 4.00 µM
  MST Average: 931.78 a.u.
  MST Replicates (a.u.): 930.04 a.u. and 931.00 a.u. and 932.61 a.u. and 933.45 a.u.
IF2-bound 30S IC; nucleotide 8.00 µM
  MST Average: 932.68 a.u.
  MST Replicates (a.u.): 930.98 a.u. and 932.59 a.u. and 933.05 a.u. and 934.12 a.u.
IF2-bound 30S IC; nucleotide 16.00 µM
  MST Average: 932.30 a.u.
  MST Replicates (a.u.): 931.44 a.u. and 932.29 a.u. and 931.81 a.u. and 933.65 a.u.
IF2-bound 30S IC; nucleotide 31.00 µM
  MST Average: 930.81 a.u.
  MST Replicates (a.u.): 928.79 a.u. and 930.49 a.u. and 930.93 a.u. and 933.04 a.u.
IF2-bound 30S IC; nucleotide 62.00 µM
  MST Average: 932.86 a.u.
  MST Replicates (a.u.): 931.23 a.u. and 932.53 a.u. and 932.57 a.u. and 935.11 a.u.
IF2-bound 30S IC; nucleotide 125.00 µM
  MST Average: 932.91 a.u.
  MST Replicates (a.u.): 931.17 a.u. and 932.39 a.u. and 933.25 a.u. and 934.84 a.u.
IF2-bound 30S IC; constant IF2 (1 μM)
  promotion of Bpy-tRNAi binding (thermophoresis) in guanosine nucleotide titration: failed to promote Bpy-tRNAi binding at any concentration
70S IC; 0.2 mM nucleotide, no GTP
  efficiency (amplitude) of 70S IC formation (Bpy-tRNAi accommodation): reduced efficiencies
70S IC; mInfA
  A0, best-fit value: 0.98
  A1, best-fit value: 0.01
  K1, best-fit value: 1.82
  k2, best-fit value: -0.00033
70S IC; mMF1
  A0, best-fit value: 0.97
  A1, best-fit value: 0.0267
  K1, best-fit value: 1.27
  k2, best-fit value: -0.00023
70S IC; mRNA mInfA
  Fluorescence Amplitude Avg: 0.010
  kfast (s-1) Avg: 1.82 s⁻¹
70S IC; mRNA mMF1
  Fluorescence Amplitude Avg: 0.027
  kfast (s-1) Avg: 1.27 s⁻¹
70S IC; mRNA mTufA
  Fluorescence Amplitude Avg: 0.043
  kfast (s-1) Avg: 3.37 s⁻¹
70S IC; mTufA
  A0, best-fit value: 0.96
  A1, best-fit value: 0.0429
  K1, best-fit value: 3.37
  k2, best-fit value: -0.00059
